Test results from patent US10806743B1, “Method of administering lactitol to reduce plasma concentration of lactitol” (Braintree Laboratories, Inc., priority 2017, dated 2020).

What was measured:
[1] = chronic idiopathic constipation; cited from earlier work
[2] = Fed v. fasted administration of lactitol: plasma lactitol pharmacokinetics (LC-MS/MS); format: in vivo, human
Experimental: A study was performed to determine the effects of food on absorption of lactitol. Sixteen subjects (8 males and 8 females) were randomized to either Sequence A (fed/fasted) and the other half to Sequence B (fasted/fed) on Day 1 prior to dosing. Subjects returned for Day 8 dosing, 7 days following dose at Day 1, to receive study drug following the opposite food sequence, have pharmacokinetic samples collected and safety procedures performed. A standard dinner was served approximately 6 hours following dose on Day 1 or Day 8. A nighttime snack was permitted, and a standard breakfast and lunch were served prior to discharge from the clinic.
No food was allowed prior to dosing; water was consumed up to one hour before dosing and then only after one hour after dosing. Subjects assigned to Sequence A (fed/fasted) received a high-calorie and high-fat meal for lunch at 11:30 AM, as described in Table 1. Subjects receiving the high fat high calorie lunch completed the meal within 30 minutes. Dose was administered 30 minutes after the start of the meal. Subjects assigned to Sequence B (fasted/fed) continued to fast prior to dose. The staff mixed the contents of two (2) packets (approximately 21 g) with 8 oz of water. Subjects consumed the dose over 5 to 10 minutes.
Doses were administered 30 minutes after the start of the meal. Subjects assigned to Sequence B (fasted/fed) continued to fast prior to dose. The CRU mixed the contents of two (2) packets (approximately 21 g) with 8 oz of water. Subjects consumed the dose over 5 to 10 minutes.
A high-fat (approximately 50 percent of total caloric content of the meal) and high-calorie (approximately 800 to 1000 calories) meal was used. Blood samples were collected prior to dosing and at 10, 20, 30 and 60 minutes (within +/−3 minutes) and then at 2, 4, 6, 8, 10, 12, 16, 18, 20 and 24 hours (within +/−30 minutes) following dose.
An LC-MS/MS method for the determination of lactitol concentrations in human plasma has been successfully developed and validated. The calibration range of the method is 25.0 to 10,000 ng/ml for lactitol using a 50 μl sample aliquot.

[3] = Adverse events in Phase 3 constipation studies; format: in vivo, human; conditions: Phase 3 studies, doses required for effective treatment of constipation
Excerpt: An Adverse Event (AE) is any untoward medical occurrence associated with the use of a drug in humans, whether or not considered drug related. An AE can therefore be any unfavorable and unintended sign (including a clinically significant abnormal laboratory finding), symptom, or disease temporally associated with the use of a medicinal (investigational) product.
These adverse reactions were transient and subsided rapidly upon dose adjustment or cessation.

[4] = estimated; cited from earlier work
plasma glucose = conditions: 25 grams, eight healthy male volunteers; cited from earlier work
calcium absorption = conditions: rats, diet containing 5% lactitol, two weeks; cited from earlier work

Row | Compound | incidence of most common adverse reactions (nausea, diarrhea, headache, abdominal pain, abdominal distention, flatulence) [1] | % CV values for λz and λ1/2, fasted v. fed ([2]; fasted and fed conditions) | time of peak plasma concentration ([2]; fasted population) | peak plasma concentration of lactitol ([2]; fasted population, approx. 21 g oral dose) | average plasma concentration of lactitol ([2]; fasted population, hour 1, approx. 21 g oral dose) | plasma concentration of lactitol ([2]; fasted population, hour 8) | plasma concentration of lactitol ([2]; fasted population, hour 12 post-dose) | plasma concentration of lactitol remained above ([2]; fasted population, until hour 8) | time of peak plasma concentration ([2]; fed population) | peak plasma concentration of lactitol ([2]; fed population (dose 30 minutes after start of high-fat, high-calorie meal)) | plasma concentration of lactitol ([2]; fed population, hour 8) | plasma concentration of lactitol ([2]; fed population, hour 12 post-dose) | AUC, fed population smaller than fasted population ([2]; fed v. fasted) | peak concentration, fed compared with fasted population ([2]; fed v. fasted) | adverse events associated with administration [3] | fraction of an oral dose excreted in urine [4] | rise in plasma glucose after ingestion (plasma glucose) | calcium absorption (calcium absorption)
1 | CCCCC(F)(F)[C@@]1(O)CC[C@H]2[C@@H](CC(=O)[C@@H]2CCCCCCC(=O)O)O1 [Lubiprostone] | > 4% |  |  |  |  |  |  |  |  |  |  |  |  |  |  |  |  | 
2 | OC[C@@H](O)[C@@H](O[C@@H]1O[C@H](CO)[C@H](O)[C@H](O)[C@H]1O)[C@H](O)[C@@H](O)CO [lactitol] |  | similar | 4 h | 2412 ng/mL | 1193 ng/mL | 935 ng/mL | 218 ng/mL | above 1000 ng/mL | 4 h | 738.25 ng/mL | 387.93 ng/mL | 124.16 ng/mL | 10 times | more than three times smaller | flatulence, nausea, vomiting, abdominal cramping or pain and bloating | 0.6% | no rise in plasma glucose | significant increase
